Test results reported in PMC12656268, “Venom Peptides Across Asian and American Tarantulas Utilize Dual Pharmacology to Target Activation and Fast Inactivation of Voltage-Gated Sodium Channels” (Toxins, 2025).
Where “and” joins values, the source holds several entries; their conditions need not be identical. Equal entries are not always repeated. Entries after “also recorded” stand apart in the source; their conditions may differ. Positions of bridges follow the written chain, without caps; N, C: chain ends. Residues, ends and D or L forms follow the SMILES beside them.

What was measured:
[1] = biological target: hNaV1.7 (Homo sapiens, UniProt Q15858); assay: hNaV1.7 peak current inhibition, automated whole-cell patch clamp (QPatch 16X); assay type: cell-based; conditions: for IC50: HEK293 + β1, holding −80 mV, 20 ms step to 0 mV from −120 mV 200 ms prepulse, 5 min incubation, mean ± SEM, 3 to 9 independent experiments, read-out: IC50, inhibition of peak current, NaV1.7
Procedure: Unless otherwise specified, all cell culture reagents were obtained from Life Technologies (Carlsbad, CA, USA). The human neuroblastoma cell line SH-SY5Y (ATCC CRL-2266; Manassas, VA, USA) was maintained in RPMI medium supplemented with 15% fetal bovine serum (FBS) and 2 mM L-glutamine. HEK293 cells stably expressing human NaV channel isoforms together with the β1 auxiliary subunit (SB Drug Discovery, Glasgow, UK) were propagated in Minimal Essential Medium (MEM; Sigma-Aldrich, St. Louis, MO, USA) containing 10% FBS, 100 U/mL penicillin, 100 µg/mL streptomycin, 2 mM L-glutamine, and selective antibiotics (blasticidin, geneticin, and zeocin) at concentrations recommended by the supplier. […]
(§1) Sodium channel currents were recorded from HEK293 cells expressing human NaV isoforms together with the β1 auxiliary subunit (SB Drug Discovery, Glasgow, UK) using the QPatch 16X automated whole-cell patch-clamp platform (Sophion Bioscience A/S, Ballerup, Denmark). […] For determining the potency of Oa1a peptides to inhibit peak current, the maximum peak current within the 20 ms at 0 mV was measured. For determining the potency of Oa1a-NH2 to slow fast inactivation, peak current values were measured at 20 ms of the 0 mV depolarization step. […]
(§2) For calcium influx experiments, bioactivity comparisons between venom fractions and controls were based on the difference between the maximal and minimal fluorescence intensity values obtained from single-replicate assays. […] Reversibility and dissociation kinetics were analyzed by fitting data with a single-phase exponential decay model, while voltage-dependence of steady-state activation and inactivation parameters were derived from Boltzmann sigmoid fits of normalized conductance (G/Gmax) or current (I/Imax) values to determine the half-activation or half-inactivation voltages (V50). Data are expressed as mean ± SEM, where n represents the number of individual cells analyzed.

[2] = system: CaV3.2; assay: hCaV3.2 (T-type) current, automated whole-cell patch clamp (QPatch 16X); assay type: cell-based, human; conditions: up to 10 μM tested; holding −90 mV, 60 ms steps to −30 mV from −120 mV 60 ms conditioning pulse; 5 min incubation; Figure S1
Procedure: (§3) Unless otherwise specified, all cell culture reagents were obtained from Life Technologies (Carlsbad, CA, USA). The human neuroblastoma cell line SH-SY5Y (ATCC CRL-2266; Manassas, VA, USA) was maintained in RPMI medium supplemented with 15% fetal bovine serum (FBS) and 2 mM L-glutamine. HEK293 cells stably expressing human NaV channel isoforms together with the β1 auxiliary subunit (SB Drug Discovery, Glasgow, UK) were propagated in Minimal Essential Medium (MEM; Sigma-Aldrich, St. Louis, MO, USA) containing 10% FBS, 100 U/mL penicillin, 100 µg/mL streptomycin, 2 mM L-glutamine, and selective antibiotics (blasticidin, geneticin, and zeocin) at concentrations recommended by the supplier. HEK293T cells expressing the human CaV3.2 channel (a generous gift from Prof. Emmanuel Bourinet, Institut de Génomique Fonctionnelle, Université de Montpellier, France, and Prof. Edward Perez-Reyes, University of Virginia School of Medicine, USA) were grown in Dulbecco’s MEM supplemented with 10% FBS, 100 U/mL penicillin, 100 µg/mL streptomycin, and 750 µg/mL geneticin.
CaV3.2 channel currents were recorded from HEK293 cells expressing hCaV3.2 using an automated QPatch 16X platform (Sophion Bioscience A/S). […]

[3] = biological target: NaV1.3 (Homo sapiens, UniProt Q9NY46); assay: Voltage dependence of steady-state inactivation and activation, NaV1.3; assay type: cell-based
Procedure: (§4) The voltage dependence of steady-state activation was assessed by recording sodium currents evoked by depolarizing voltage steps ranging from −110 mV to +80 mV in 5 mV increments. Peak conductance (GNa) was derived using the equation G = I/(V − Vrev), where I denotes the measured current, V the applied membrane potential, and Vrev the sodium reversal potential. To evaluate the voltage dependence of steady-state fast inactivation, a two-pulse protocol was used. Cells were conditioned with 500 ms pre-pulses at potentials between −130 mV and −10 mV (10 mV increments), followed by a 20 ms test depolarization to 0 mV to elicit sodium currents. The steady-state fast inactivation currents were plotted as I/Imax, where I = current value and Imax = highest current value within the experiment. The voltage-dependence of steady-state activation and inactivation were determined either in the absence of peptide or following 5 min exposure to peptide at the respective IC50 concentration at the NaV subtype analyzed to streamline the investigation using an effective single concentration as previously described by us.
(§5) For calcium influx experiments, bioactivity comparisons between venom fractions and controls were based on the difference between the maximal and minimal fluorescence intensity values obtained from single-replicate assays. Electrophysiological data analysis was conducted using GraphPad Prism (version 8; GraphPad Software, San Diego, CA, USA). Nonlinear regression was applied to fit the concentration–response relationships using a variable Hill slope: log(inhibitor) versus normalized response for determining IC50 values, and log(agonist) versus normalized response for EC50 calculations. Reversibility and dissociation kinetics were analyzed by fitting data with a single-phase exponential decay model, while voltage-dependence of steady-state activation and inactivation parameters were derived from Boltzmann sigmoid fits of normalized conductance (G/Gmax) or current (I/Imax) values to determine the half-activation or half-inactivation voltages (V50). Data are expressed as mean ± SEM, where n represents the number of individual cells analyzed.

[4] = system: NaV1.7; assay: Voltage dependence of steady-state inactivation and activation, NaV1.7; assay type: cell-based, human; conditions: for V50 of steady-state activation in presence of peptide, NaV1.7: control V50 = −28 ± 0.5 mV (sOa1a-NH2 experiment), −25 ± 0.7 mV (sOa1a-OH experiment); for V50 of steady-state activation in presence of peptide, NaV1.7 / V50 of steady-state inactivation in presence of peptide, NaV1.7: 5 min at IC50 concentration, mean ± SEM, 3 to 5 repeats; for V50 of steady-state inactivation in presence of peptide, NaV1.7: control V50 = −66 ± 0.7 mV (sOa1a-NH2 experiment), −66 ± 0.3 mV (sOa1a-OH experiment); for Effect on current–voltage relationships (activation, steady-state inactivation), NaV1.7: peptide at IC50 concentration
Procedure: as §4, §5

[5] = system: hNaV1.1 to hNaV1.7; assay: NaV subtype preference across NaV1.1 to NaV1.7, patch clamp; assay type: cell-based, human; conditions: NaV1.1 to NaV1.7, closed-state voltage protocol
Procedure: as §3
as §1, with “Denmark). The external recording solution contained (in mM) the following: 140 NaCl, 3 KCl, 1 CaCl2, 1 MgCl2, 0.1 CdCl2, 20 tetraethylammonium chloride (TEA-Cl), and 5 HEPES; pH was adjusted to 7.3 and osmolarity to 320 mOsm. The internal (pipette) solution consisted of (in mM) the following: 140 CsF, 10 NaCl, 10 HEPES, and 1/5 EGTA/CsOH, also adjusted to pH 7.3 and 320 mOsm.” for “Denmark).”
as §2

hNaV1.7, sequence (Q07699 19-218): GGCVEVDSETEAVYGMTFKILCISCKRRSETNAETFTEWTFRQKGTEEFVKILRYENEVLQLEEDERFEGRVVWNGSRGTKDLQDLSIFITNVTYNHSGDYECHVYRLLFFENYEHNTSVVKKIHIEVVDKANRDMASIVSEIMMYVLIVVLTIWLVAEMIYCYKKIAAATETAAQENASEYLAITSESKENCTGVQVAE
hNaV1.7, sequence (Q15858 whole entry, canonical isoform): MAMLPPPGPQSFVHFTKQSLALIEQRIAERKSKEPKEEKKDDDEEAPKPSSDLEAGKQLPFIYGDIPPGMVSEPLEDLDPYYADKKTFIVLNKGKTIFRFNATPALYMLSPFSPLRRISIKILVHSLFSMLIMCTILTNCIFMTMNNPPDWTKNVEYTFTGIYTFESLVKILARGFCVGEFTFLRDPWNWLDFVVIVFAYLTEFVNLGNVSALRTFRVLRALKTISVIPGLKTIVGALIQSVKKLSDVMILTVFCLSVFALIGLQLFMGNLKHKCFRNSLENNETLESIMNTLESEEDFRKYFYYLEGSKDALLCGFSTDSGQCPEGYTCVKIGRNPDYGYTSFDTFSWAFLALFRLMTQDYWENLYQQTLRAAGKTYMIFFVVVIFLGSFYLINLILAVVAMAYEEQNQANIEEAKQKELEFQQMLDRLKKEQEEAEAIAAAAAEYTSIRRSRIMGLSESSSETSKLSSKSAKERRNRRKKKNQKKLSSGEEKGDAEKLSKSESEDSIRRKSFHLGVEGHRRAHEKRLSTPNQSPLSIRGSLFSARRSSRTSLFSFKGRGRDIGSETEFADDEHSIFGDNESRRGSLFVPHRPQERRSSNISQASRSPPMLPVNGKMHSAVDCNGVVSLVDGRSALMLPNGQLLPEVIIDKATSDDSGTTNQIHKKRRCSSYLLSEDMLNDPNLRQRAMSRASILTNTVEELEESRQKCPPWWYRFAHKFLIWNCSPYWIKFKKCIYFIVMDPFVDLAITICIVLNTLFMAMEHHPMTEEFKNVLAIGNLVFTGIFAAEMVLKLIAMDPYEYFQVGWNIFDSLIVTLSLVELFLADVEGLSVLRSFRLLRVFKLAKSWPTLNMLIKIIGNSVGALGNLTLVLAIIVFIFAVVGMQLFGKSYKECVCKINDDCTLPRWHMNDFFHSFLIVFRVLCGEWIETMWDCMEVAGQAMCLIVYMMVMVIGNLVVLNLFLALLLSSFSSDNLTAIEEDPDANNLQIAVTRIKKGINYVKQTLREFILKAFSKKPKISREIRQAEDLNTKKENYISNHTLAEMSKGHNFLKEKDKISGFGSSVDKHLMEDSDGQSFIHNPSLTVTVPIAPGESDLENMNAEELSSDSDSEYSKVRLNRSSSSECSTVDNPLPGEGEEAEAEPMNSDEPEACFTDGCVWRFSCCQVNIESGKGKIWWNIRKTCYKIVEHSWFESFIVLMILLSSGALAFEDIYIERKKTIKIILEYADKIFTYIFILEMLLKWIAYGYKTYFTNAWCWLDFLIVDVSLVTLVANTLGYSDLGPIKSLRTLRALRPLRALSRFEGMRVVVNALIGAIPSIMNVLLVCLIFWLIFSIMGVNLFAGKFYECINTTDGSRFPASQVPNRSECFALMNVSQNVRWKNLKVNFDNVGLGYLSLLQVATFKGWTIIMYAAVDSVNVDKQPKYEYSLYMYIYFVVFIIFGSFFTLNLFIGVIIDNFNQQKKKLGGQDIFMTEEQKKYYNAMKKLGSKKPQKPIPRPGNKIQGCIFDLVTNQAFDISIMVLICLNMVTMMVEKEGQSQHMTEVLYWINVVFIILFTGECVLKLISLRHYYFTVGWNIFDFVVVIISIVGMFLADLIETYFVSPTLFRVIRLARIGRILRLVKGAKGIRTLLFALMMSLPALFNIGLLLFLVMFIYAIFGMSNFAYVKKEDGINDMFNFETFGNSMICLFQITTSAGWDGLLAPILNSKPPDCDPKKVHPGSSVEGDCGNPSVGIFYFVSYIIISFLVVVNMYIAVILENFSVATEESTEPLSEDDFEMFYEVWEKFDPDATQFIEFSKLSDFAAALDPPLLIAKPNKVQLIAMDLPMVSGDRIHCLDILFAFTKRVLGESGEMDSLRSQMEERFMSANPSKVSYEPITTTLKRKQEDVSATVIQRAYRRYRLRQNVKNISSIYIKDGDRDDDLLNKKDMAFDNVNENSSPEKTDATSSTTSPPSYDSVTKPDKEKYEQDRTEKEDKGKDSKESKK
NaV1.3, sequence (Q9NY46 whole entry): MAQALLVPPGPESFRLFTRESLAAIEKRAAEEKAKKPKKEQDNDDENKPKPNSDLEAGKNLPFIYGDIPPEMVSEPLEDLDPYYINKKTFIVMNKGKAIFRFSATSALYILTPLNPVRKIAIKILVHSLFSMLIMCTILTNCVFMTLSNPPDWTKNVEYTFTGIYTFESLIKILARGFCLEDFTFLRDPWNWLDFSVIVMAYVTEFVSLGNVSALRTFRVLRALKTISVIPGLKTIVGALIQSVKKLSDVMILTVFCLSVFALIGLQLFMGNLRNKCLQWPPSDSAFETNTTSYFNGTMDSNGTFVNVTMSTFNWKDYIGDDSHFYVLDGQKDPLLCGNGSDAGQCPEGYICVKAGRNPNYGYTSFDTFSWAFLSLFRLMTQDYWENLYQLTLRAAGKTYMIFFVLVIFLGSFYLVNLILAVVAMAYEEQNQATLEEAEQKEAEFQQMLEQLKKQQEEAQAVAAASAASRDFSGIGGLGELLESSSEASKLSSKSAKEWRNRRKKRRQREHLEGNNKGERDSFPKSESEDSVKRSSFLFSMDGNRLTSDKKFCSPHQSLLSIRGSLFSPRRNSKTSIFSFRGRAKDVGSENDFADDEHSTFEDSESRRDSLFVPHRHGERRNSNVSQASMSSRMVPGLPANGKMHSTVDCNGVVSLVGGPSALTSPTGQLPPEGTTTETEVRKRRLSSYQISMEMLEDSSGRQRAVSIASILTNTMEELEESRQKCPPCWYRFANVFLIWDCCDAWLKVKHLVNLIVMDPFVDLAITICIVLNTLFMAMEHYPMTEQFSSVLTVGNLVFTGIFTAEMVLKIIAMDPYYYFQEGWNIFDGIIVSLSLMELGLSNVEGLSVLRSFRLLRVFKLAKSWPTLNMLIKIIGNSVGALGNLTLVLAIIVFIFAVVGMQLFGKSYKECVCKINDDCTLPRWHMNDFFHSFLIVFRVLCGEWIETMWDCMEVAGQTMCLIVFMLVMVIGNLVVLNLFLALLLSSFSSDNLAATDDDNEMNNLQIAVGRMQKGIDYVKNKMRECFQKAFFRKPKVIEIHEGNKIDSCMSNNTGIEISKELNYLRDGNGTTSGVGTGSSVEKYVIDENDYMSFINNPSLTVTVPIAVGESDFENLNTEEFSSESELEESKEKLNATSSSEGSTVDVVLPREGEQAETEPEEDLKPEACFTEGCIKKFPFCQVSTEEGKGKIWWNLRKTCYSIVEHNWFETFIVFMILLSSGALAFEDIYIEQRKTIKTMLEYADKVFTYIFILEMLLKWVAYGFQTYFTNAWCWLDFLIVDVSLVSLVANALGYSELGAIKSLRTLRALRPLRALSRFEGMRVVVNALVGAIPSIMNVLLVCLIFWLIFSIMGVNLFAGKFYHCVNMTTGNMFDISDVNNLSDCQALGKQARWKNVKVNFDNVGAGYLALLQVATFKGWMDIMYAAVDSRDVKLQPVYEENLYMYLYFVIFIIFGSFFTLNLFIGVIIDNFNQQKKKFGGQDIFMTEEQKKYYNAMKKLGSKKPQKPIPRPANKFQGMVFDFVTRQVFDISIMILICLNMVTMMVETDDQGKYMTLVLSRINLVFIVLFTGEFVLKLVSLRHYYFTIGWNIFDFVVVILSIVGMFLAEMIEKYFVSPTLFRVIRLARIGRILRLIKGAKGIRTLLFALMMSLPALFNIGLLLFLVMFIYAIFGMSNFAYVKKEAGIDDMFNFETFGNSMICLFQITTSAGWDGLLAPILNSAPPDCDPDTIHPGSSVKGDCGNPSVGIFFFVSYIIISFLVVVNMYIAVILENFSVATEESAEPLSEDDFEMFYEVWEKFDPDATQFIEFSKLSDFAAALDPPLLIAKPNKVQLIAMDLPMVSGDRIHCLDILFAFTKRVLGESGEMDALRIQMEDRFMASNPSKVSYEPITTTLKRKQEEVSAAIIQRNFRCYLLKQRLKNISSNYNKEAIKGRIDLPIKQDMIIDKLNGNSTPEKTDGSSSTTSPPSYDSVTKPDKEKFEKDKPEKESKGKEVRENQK
NaV1.3, sequence (Q07699 19-218, further chain): as the sequence (Q07699 19-218) above

| Structure (SMILES) | IC50 [1] [µM] | Activity on CaV3.2 [2] | V50 of steady-state activation in presence of peptide, NaV1.3 ([3]; control V50 = −21 ± 0.4 mV, steps −110 to +80 mV in 5 mV increments, mean ± SEM, 3 to 5 repeats) [mV] | V50 of steady-state inactivation in presence of peptide, NaV1.3 ([3]; control V50 = −71 ± 0.71 mV, 5 min exposure at IC50 concentration, 23 nM, 500 ms pre-pulses −130 to −10 mV, mean ± SEM, 3 to 5 repeats) | ΔV50 of steady-state inactivation, NaV1.3 ([3]; peptide vs control, shift to more depolarized potentials, 3 to 5 repeats) [mV] | Shift in voltage of activation, NaV1.3 ([3]; presence of 23 nM sOa1a-NH2) [mV] | V50 of steady-state activation in presence of peptide, NaV1.7 [4] [mV] | V50 of steady-state inactivation in presence of peptide, NaV1.7 [4] [mV] | Effect on current–voltage relationships (activation, steady-state inactivation), NaV1.7 [4] | NaV subtype preference of inhibition (in words) [5] | Ratio OH/NH2 (IC50 sOa1a-OH / IC50 sOa1a-NH2), NaV1.7 ([1]; ratio of IC50 values) |
| --- | --- | --- | --- | --- | --- | --- | --- | --- | --- | --- | --- |
| CC(C)C[C@@H]1NC(=O)[C@H](Cc2ccccc2)NC(=O)[C@H](Cc2ccc(O)cc2)NC(=O)[C@H](CCCNC(=N)N)NC(=O)[C@@H](NC(=O)[C@@H](N)CCC(=O)O)CSSC[C@@H]2NC(=O)[C@@H]3CSSC[C@@H](C(=O)N[C@H](C(=O)N[C@@H](Cc4c[nH]c5ccccc45)C(=O)N[C@@H](CC(=O)O)C(=O)N[C@@H](Cc4c[nH]c5ccccc45)C(=O)N[C@H](C(=O)N[C@@H](Cc4ccccc4)C(N)=O)[C@@H](C)O)C(C)C)NC(=O)[C@H](Cc4c[nH]c5ccccc45)NC(=O)[C@H](CCC(N)=O)NC(=O)[C@H](Cc4c[nH]cn4)NC(=O)[C@H](CCCCN)NC(=O)[C@H](CC(N)=O)NC(=O)[C@H](Cc4c[nH]cn4)NC(=O)[C@H](CSSC[C@H](NC(=O)CNC(=O)CNC1=O)C(=O)N[C@@H](CO)C(=O)N[C@@H](CCC(N)=O)C(=O)NCC(=O)N[C@@H](CCC(=O)O)C(=O)N[C@@H](CCCCN)C(=O)N3)NC(=O)[C@H](C(C)C)NC(=O)[C@H](CC(C)C)NC(=O)[C@H](Cc1c[nH]cn1)NC(=O)[C@H](CCC(=O)O)NC2=O [sOa1a-NH2] (H-ECRYFLGGCSQGEKCCEHLVCHNKHQWCVWDWTF-NH2; disulfide 2-16, 9-21, 15-28; N-terminus assumed) | 0.025 ± 0.0004 | did not observe activity | −26 | -57 ± 1.4 mV and −57 mV | 14 | ≤ 5 | −30 | −69 | remained nearly unaltered; also recorded: did not alter the voltage of activation or the steady-state inactivation | strong preference for inhibiting NaV1.1 | – |
| CC(C)C[C@@H]1NC(=O)[C@H](Cc2ccccc2)NC(=O)[C@H](Cc2ccc(O)cc2)NC(=O)[C@H](CCCNC(=N)N)NC(=O)[C@@H](NC(=O)[C@@H](N)CCC(=O)O)CSSC[C@@H]2NC(=O)[C@@H]3CSSC[C@@H](C(=O)N[C@H](C(=O)N[C@@H](Cc4c[nH]c5ccccc45)C(=O)N[C@@H](CC(=O)O)C(=O)N[C@@H](Cc4c[nH]c5ccccc45)C(=O)N[C@H](C(=O)N[C@@H](Cc4ccccc4)C(=O)O)[C@@H](C)O)C(C)C)NC(=O)[C@H](Cc4c[nH]c5ccccc45)NC(=O)[C@H](CCC(N)=O)NC(=O)[C@H](Cc4c[nH]cn4)NC(=O)[C@H](CCCCN)NC(=O)[C@H](CC(N)=O)NC(=O)[C@H](Cc4c[nH]cn4)NC(=O)[C@H](CSSC[C@H](NC(=O)CNC(=O)CNC1=O)C(=O)N[C@@H](CO)C(=O)N[C@@H](CCC(N)=O)C(=O)NCC(=O)N[C@@H](CCC(=O)O)C(=O)N[C@@H](CCCCN)C(=O)N3)NC(=O)[C@H](C(C)C)NC(=O)[C@H](CC(C)C)NC(=O)[C@H](Cc1c[nH]cn1)NC(=O)[C@H](CCC(=O)O)NC2=O [sOa1a-OH] (H-ECRYFLGGCSQGEKCCEHLVCHNKHQWCVWDWTF-OH; disulfide 2-16, 9-21, 15-28; N-terminus assumed) | 0.41 ± 0.023 | did not observe activity | – | – | – | – | −22 | −71 | remained nearly unaltered | strong preference for inhibiting NaV1.1 | 16 |
